Results on 9 molecules are retold here after US12371454B2, “Cyclic peptide compound having Kras inhibitory action” (priority 2019, dated 2025).

Starred links: 1 amine or outer side, 2 acyl side, 3 side chain; linkers in the order of their positions; H or OH if unused. Positions of bridges follow the written chain, without caps; N, C: chain ends. Non-standard residues stand in square brackets, D forms with d. Residues, ends and D or L forms follow the SMILES beside them. *: point of attachment. hPhe(3-Cl-4-CF3) = N[C@@H](CCc1ccc(C(F)(F)F)c(Cl)c1)C(=O)O; NMePhe(3-CF3) = CN[C@@H](Cc1cccc(C(F)(F)F)c1)C(=O)O; NMePhe(4-Cl) = CN[C@@H](Cc1ccc(Cl)cc1)C(=O)O; NMedβ3hAla = C[C@H](CC(=O)[*:2])N(C)[*:1]; Phe(3-Cl) = N[C@@H](Cc1cccc(Cl)c1)C(=O)O; NMeGly(cPent) = CN[C@H](C(=O)O)C1CCCC1; Phe(3-I) = N[C@@H](Cc1cccc(I)c1)C(=O)O; Pro(4,4-F2) = O=C(O)[C@@H]1CC(F)(F)CN1; NMeY = CN[C@@H](Cc1ccc(O)cc1)C(=O)O; NMeCha = CN[C@@H](CC1CCCCC1)C(=O)O; NMeChg = CN[C@H](C(=O)O)C1CCCCC1; NMeF = CN[C@@H](Cc1ccccc1)C(=O)O; N(CH2CH2)2CF2 = FC1(F)CCN(*)CC1; NMeD = CN[C@@H](CC(=O)O)C(=O)O; NMeL = CN[C@@H](CC(C)C)C(=O)O; NMeNva = CCC[C@H](NC)C(=O)O; NMeV = CN[C@H](C(=O)O)C(C)C; d(β3hA) = C[C@@H](N)CC(=O)O; NMeA = CN[C@@H](C)C(=O)O; NMeAib = CNC(C)(C)C(=O)O; Piperidide = C1CCN(*)CC1; Pra = C#CC[C@H](N)C(=O)O; Pyrrolidide = C1CCN(*)C1; dNMeA = CN[C@H](C)C(=O)O; Ac5c = NC1(C(=O)O)CCCC1; Aze = O=C(O)[C@@H]1CCN1; Ac4c = NC1(C(=O)O)CCC1; NEtG = CCNCC(=O)O; CF3 = FC(F)(F)*; Sar = CNCC(=O)O

T1 sequence (P01116 1-188 isoform P01116-2 G12D): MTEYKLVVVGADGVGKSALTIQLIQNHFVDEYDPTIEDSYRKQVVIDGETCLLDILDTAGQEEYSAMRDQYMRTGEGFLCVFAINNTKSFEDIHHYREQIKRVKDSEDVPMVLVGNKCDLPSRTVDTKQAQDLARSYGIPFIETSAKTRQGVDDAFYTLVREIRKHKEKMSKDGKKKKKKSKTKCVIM

This test concerns the target T1, Kras and SOS1 (biotin-tagged human Kras loaded with GDP, His-tagged human SOS1) (Homo sapiens, UniProt P01116, G12D).
T1 construct: made in house; host or cells: E. coli (stated for Kras only)
The test can be described thus: Protein-protein interaction inhibition between Kras and SOS1 (KrasGl2D-SOS PPI) using AlphaScreen. Type of test: binding. The following applies: AlphaScreen; biotin-tagged human Kras loaded with GDP, His-tagged human SOS1; read-out: KRAS G12D-SOS PPI IC50. An outline of the steps:
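AlphaScreen format: Ni donor beads capture His-SOS1, streptavidin acceptor beads capture biotinylated Kras (E. coli-expressed, GDP-loaded post-purification). Excite 680 nm, read 520-620 nm.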
In general terms: Bead proximity is the source of the signal in Alpha formats.
A word on the IC50: it is the point on the concentration scale where inhibition reaches its midpoint. As for `C#CC[C@@H]1NC(=O)[C@H](Cc2cccc(I)c2)NC(=O)CN(C)C(=O)[C@H](Cc2ccc(OC(F)(F)F)cc2)N(C)C(=O)[C@@H]2CCN2C(=O)[C@H](C)N(C)C(=O)[C@H]([C@@H](C)CC)NC(=O)[C@H](CC(C)C)N(C)C(=O)C[C@@H](C(=O)N2CCCCC2)N(C)C(=O)[C@H](CC(C)C)NC(=O)C(C)(C)N(C)C1=O` [Compound 1288] ([NMeL]I[NMeA][Aze][NMeY](CF3)[Sar][Phe(3-I)][Pra][NMeAib]L[NMeD]-Piperidide; lactam N-11), the IC50 came to 31 nM. With `CC[C@H](C)[C@@H]1NC(=O)[C@H](CC(C)C)N(C)C(=O)C[C@@H](C)N(C)C(=O)[C@H](C2CCCC2)N(C)C(=O)C2(CCCC2)NC(=O)[C@H](CC(=O)N2CCC(F)(F)CC2)N(C)C(=O)[C@H](CCc2ccc(C(F)(F)F)c(Cl)c2)NC(=O)CN(C)C(=O)[C@H](CC2CCCCC2)N(C)C(=O)[C@@H]2CCN2C(=O)[C@H](C)N(C)C1=O` [Compound 777] (cyclo([Ac5c][NMeGly(cPent)][NMedβ3hAla][NMeL]I[NMeA][Aze][NMeCha][Sar][hPhe(3-Cl-4-CF3)][NMeD](N(CH2CH2)2CF2))), the half-maximal inhibitory concentration (IC50) came to 330 nM.

As to `CC[C@H](C)[C@@H]1NC(=O)[C@H](CC(C)C)N(C)C(=O)C[C@@H](C)NC(=O)[C@H](C(C)C)N(C)C(=O)C2(CCCC2)NC(=O)[C@@H]2CCCN2C(=O)[C@H](CCc2ccc(C(F)(F)F)c(Cl)c2)NC(=O)CN(C)C(=O)[C@H](Cc2cccc(C(F)(F)F)c2)N(C)C(=O)CN(C)C(=O)CN(C)C1=O` [Compound 1575] (cyclo([Ac5c][NMeV][d(β3hA)][NMeL]I[Sar][Sar][NMePhe(3-CF3)][Sar][hPhe(3-Cl-4-CF3)]P)), the IC50 amounted to 45 nM. Turning to `CC[C@H](C)[C@@H]1NC(=O)[C@H](C)N(C)C(=O)C[C@@H](C)NC(=O)[C@H](C2CCCC2)N(C)C(=O)C2(CCCC2)NC(=O)[C@@H]2CCCN2C(=O)[C@H](CCc2ccc(C(F)(F)F)c(Cl)c2)NC(=O)[C@@H](C)N(C)C(=O)[C@H](C(C)C)N(C)C(=O)CN(C)C(=O)CN(C)C1=O` [Compound 109] (cyclo([Ac5c][NMeGly(cPent)][d(β3hA)][NMeA]I[Sar][Sar][NMeV][dNMeA][hPhe(3-Cl-4-CF3)]P)), the IC50 was 40 nM. The result for `CCC[C@H]1C(=O)N(C)CC(=O)N[C@@H](CCc2ccc(C(F)(F)F)c(Cl)c2)C(=O)N2CCC[C@H]2C(=O)NC2(CCCC2)C(=O)N(C)[C@@H](C(C)C)C(=O)N(C)[C@H](C(=O)N2CCCCC2)CC(=O)N(C)[C@@H](CC(C)C)C(=O)N[C@@H]([C@@H](C)CC)C(=O)N(C)[C@@H](C)C(=O)N2CC[C@H]2C(=O)N1C` [Compound 1027] ([NMeL]I[NMeA][Aze][NMeNva][Sar][hPhe(3-Cl-4-CF3)]P[Ac5c][NMeV][NMeD]-Piperidide; lactam N-11) reads 8.2 nM; that for `CC[C@H](C)[C@@H]1NC(=O)[C@H](C)N(C)C(=O)C[C@@H](C(=O)N2CCCC2)NC(=O)[C@H](C(C)C)N(C)C(=O)[C@H](Cc2ccccc2)N(C)C(=O)[C@H](Cc2ccccc2)NC(=O)[C@H](Cc2cccc(Cl)c2)NC(=O)CN(CC)C(=O)[C@H](Cc2ccc(Cl)cc2)N(C)C(=O)CN(C)C(=O)CN(C)C1=O` [Compound 29] ([NMeA]I[Sar][Sar][NMePhe(4-Cl)][NEtG][Phe(3-Cl)]F[NMeF][NMeV]D-Pyrrolidide; lactam N-11), 320 nM. Under `CC[C@H](C)[C@@H]1NC(=O)[C@H](CC(C)C)N(C)C(=O)C[C@@H](C(=O)N2CCCC2)N(C)C(=O)[C@H](C2CCCCC2)N(C)C(=O)C2(CCC2)NC(=O)[C@@H]2CC(F)(F)CN2C(=O)[C@H](CCc2ccc(C(F)(F)F)c(Cl)c2)NC(=O)CN(C)C(=O)[C@H](CC2CCCCC2)N(C)C(=O)CN(C)C(=O)CN(C)C1=O` [Compound 1163] ([NMeL]I[Sar][Sar][NMeCha][Sar][hPhe(3-Cl-4-CF3)][Pro(4,4-F2)][Ac4c][NMeChg][NMeD]-Pyrrolidide; lactam N-11) stands 0.46 nM.

On to `CC[C@H](C)[C@@H]1NC(=O)[C@H](CC(C)C)N(C)C(=O)C[C@@H](C)N(C)C(=O)[C@H](CC(C)C)NC(=O)C(C)(C)N(C)C(=O)[C@H](CC(C)C)NC(=O)[C@H](CCc2ccc(C(F)(F)F)c(Cl)c2)NC(=O)CN(C)C(=O)[C@H](CC2CCCCC2)N(C)C(=O)[C@@H]2CCN2C(=O)[C@H](C)N(C)C1=O` [Compound 886] (cyclo([Aze][NMeCha][Sar][hPhe(3-Cl-4-CF3)]L[NMeAib]L[NMedβ3hAla][NMeL]I[NMeA])), for which the IC50 was determined as 100 nM. As for `CC[C@H](C)[C@@H]1NC(=O)[C@H](C)N(C)C(=O)C[C@@H](C(=O)N2CCCCC2)N(C)C(=O)[C@H](C(C)C)N(C)C(=O)C2(CCCC2)NC(=O)[C@@H]2CCCN2C(=O)[C@H](CCc2ccc(C(F)(F)F)c(Cl)c2)NC(=O)CN(C)C(=O)[C@H](CC2CCCCC2)N(C)C(=O)[C@@H]2CCN2C(=O)[C@H](C2CCCCC2)N(C)C1=O` [Compound 1622] ([NMeA]I[NMeChg][Aze][NMeCha][Sar][hPhe(3-Cl-4-CF3)]P[Ac5c][NMeV][NMeD]-Piperidide; lactam N-11), the IC50 amounted to 130 nM.
